Assay results published in patent US11440913B2, “Aminoimidazopyridazines as kinase inhibitors” (BRISTOL-MYERS SQUIBB COMPANY, priority 2017, dated 2022).
Counter-ions that a name gives are not always drawn. Like-named read-outs stand apart in the source and are kept apart here.

Columns and labels:
[1] = target: His-GST-TVMV-hRIPK1(1-324) (Homo sapiens (Human), UniProt Q13546); assay: RIPK1 HTRF Binding Assay; conditions: HTRF binding, 1 h at rt; read-out: RIPK1 (IC50)
Outline: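 HTRF probe-displacement binding: 1 nM His-GST-TVMV-hRIPK1(1-324) (baculovirus construct), 90.6 nM probe, 0.2 nM anti-GST-Tb in 20 mM HEPES, 10 mM MgCl2, 0.015% Brij-35, 4 mM DTT, 0.05 mg/mL BSA. Incubated 1 h at rt; FRET 520/495 nm ratio, inhibition relative to DMSO-only wells.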

[2] = tested on: MLKL phosphorylation in HT29-L23 human colorectal adenocarcinoma cells; assay: MLKL Phosphorylation High-Content Assay; assay type: cell-based; conditions: 6 h, necroptosis induced with TNFα, SMAC mimetic and Z-VAD, read-out: pMLKL (IC50)
Outline: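 HT29-L23 cells pretreated 30 min at 37 °C with compound (6.25 to 0.106 μM final), then necroptosis induced with TNFα 35 ng/mL, SMAC mimetic 700 nM and Z-VAD 140 nM for 6 h. Fixed cells immunostained for MLKL pS358 and imaged; IC50 and Ymax from 4-parameter logistic fit.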

Chain of His-GST-TVMV-hRIPK1(1-324) (Q13546 1-324): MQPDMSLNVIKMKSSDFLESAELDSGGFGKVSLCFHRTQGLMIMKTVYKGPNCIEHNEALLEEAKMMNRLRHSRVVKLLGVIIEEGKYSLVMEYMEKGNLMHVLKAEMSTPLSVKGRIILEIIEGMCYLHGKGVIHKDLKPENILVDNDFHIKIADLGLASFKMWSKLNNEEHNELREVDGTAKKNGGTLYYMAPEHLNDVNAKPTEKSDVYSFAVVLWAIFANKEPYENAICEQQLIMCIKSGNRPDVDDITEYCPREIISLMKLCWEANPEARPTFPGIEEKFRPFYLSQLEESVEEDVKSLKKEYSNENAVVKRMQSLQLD

## COc1ncc(-c2ccc3nc(NC(C)=O)cn3n2)cc1C(=O)NCc1ccc(F)cc1OC1CCOCC1 [Example 152, 5-{2-acetamidoimidazo[1,2-b]pyridazin-6-yl}-N-{[4-fluoro-2-(oxan-4-yloxy)phenyl]methyl}-2-methoxypyridine-3-carboxamide]
[1]
  IC50: 49 nM
[2]; Homo sapiens
  IC50: 69 nM

## CC(=O)Nc1cn2nc(-c3cc(C(=O)NCCC(C)c4ccccc4)cnc3C)ccc2n1 (stereo not shown) [Example 231, 5-{2-acetamidoimidazo[1,2-b]pyridazin-6-yl}-6-methyl-N-(3-phenylbutyl)pyridine-3-carboxamide]
[1]
  IC50: 6 nM
[2]
  IC50: 60 nM

## CCC(=O)Nc1cn2nc(-c3cnc(OC)c(C(=O)NCc4cc(OCC5CC5)ccc4F)c3)ccc2n1 [Example 250, N-{[5-(cyclopropylmethoxy)-2-fluorophenyl]methyl}-2-methoxy-5-{2-propanamidoimidazo[1,2-b]pyridazin-6-yl}pyridine-3-carboxamide]
[1]
  IC50: 18 nM
[2]; Homo sapiens
  IC50: 61 nM

## COc1ncc(-c2ccc3nc(NC(C)=O)cn3n2)cc1C(=O)NCc1ccccc1OCC(C)C [Example 117, 5-{2-acetamidoimidazo[1,2-b]pyridazin-6-yl}-2-methoxy-N-{[2-(2-methyl-propoxy)phenyl]methyl}pyridine-3-carboxamide]
[1]
  IC50: 6 nM
[2]; Homo sapiens
  IC50: 19 nM

## CC(=O)Nc1cn2nc(-c3cncc(C(=O)NCc4cc(OC(F)(F)F)ccc4F)c3)ccc2n1 [Example 237, 5-{2-acetamidoimidazo[1,2-b]pyridazin-6-yl}-N-{[2-fluoro-5-(trifluoromethoxy)phenyl]methyl} pyridine-3-carboxamide]
[1]
  IC50: 45 nM
[2]; Homo sapiens
  IC50: 77 nM

## CC(=O)Nc1cn2nc(-c3cnc(C)c(C(=O)Nc4cn(Cc5ccc(Cl)cc5)cn4)c3)ccc2n1 [Example 349, N-{1-[(4-chlorophenyl)methyl]-1H-imidazol-4-yl}-5-{2-acetamidoimidazo[1,2-b]pyridazin-6-yl}-2-methylpyridine-3-carboxamide]
[1]
  IC50: 51 nM
[2]; Homo sapiens
  IC50: 424 nM

## [2H]C([2H])([2H])Oc1nc(C)c(-c2ccc3nc(NC(C)=O)cn3n2)cc1C(=O)NC(C)c1ccccc1OC(F)(F)F (single isomer, unassigned) [Example 13-1, 5-{2-acetamidoimidazo[1,2-b]pyridazin-6-yl}-2-(D3)methoxy-6-methyl-N-{1-[2-(trifluoromethoxy)phenyl]ethyl}pyridine-3-carboxamide]
[1]
  IC50: 986 nM
[2]
  IC50: > 6250 nM

## CC(=O)Nc1cn2nc(-c3cnc(Cl)c(C(=O)NCc4cc(C(F)(F)F)ccc4F)c3)ccc2n1 [Example 275, 2-chloro-5-{2-acetamidoimidazo[1,2-b]pyridazin-6-yl}-N-{[2-fluoro-5-(trifluoromethyl)phenyl]methyl}pyridine-3-carboxamide]
[1]
  IC50: 32 nM
[2]
  IC50: 52 nM

## COc1ncc(-c2ccc3nc(NC(C)=O)cn3n2)cc1C(=O)NCc1cc(F)cc(OC(F)(F)F)c1 [Example 138, 5-{2-acetamidoimidazo[1,2-b]pyridazin-6-yl}-N-{[3-fluoro-5-(trifluoromethoxy)phenyl]methyl}-2-methoxypyridine-3-carboxamide]
[1]
  IC50: 13 nM
[2]; Homo sapiens
  IC50: 72 nM

## CCC(=O)Nc1cn2nc(-c3cnc(OC)c(C(=O)NCc4cc(OC(F)(F)F)ccc4F)c3)ccc2n1 [Example 10, N-{[2-fluoro-5-(trifluoromethoxy)phenyl]methyl}-2-methoxy-5-{2-propanamidoimidazo[1,2-b]pyridazin-6-yl}pyridine-3-carboxamide]
[1]
  IC50: 11 nM
[2]; Homo sapiens
  IC50: 33 nM

## CC(=O)Nc1cn2nc(-c3cnc(C)c(C(=O)NCc4ccccc4OC4CCCC4)c3)ccc2n1 [Example 225, N-{[2-(cyclopentyloxy)phenyl]methyl}-5-{2-acetamidoimidazo[1,2-b]pyridazin-6-yl}-2-methylpyridine-3-carboxamide]
[1]
  IC50: 5 nM
[2]; Homo sapiens
  IC50: 3 nM

## COc1ncc(-c2ccc3nc(NC(=O)C(C)C)cn3n2)cc1C(=O)NCc1ccccc1OC(F)(F)F [Example 263, 2-methoxy-5-[2-(2-methylpropanamido)imidazo[1,2-b]pyridazin-6-yl]-N-{[2-(trifluoromethoxy)phenyl]-methyl}pyridine-3-carboxamide]
[1]
  IC50: 107 nM
[2]; Homo sapiens
  IC50: 38 nM

## COc1ncc(-c2ccc3nc(NC(C)=O)cn3n2)cc1C(=O)NCc1cc(F)cc(F)c1OC1CCOCC1 [Example 129, N-{[3,5-difluoro-2-(oxan-4-yloxy)phenyl]methyl}-5-{2-acetamidoimidazo[1,2-b]pyridazin-6-yl}-2-methoxypyridine-3-carboxamide, TFA]
[1]
  IC50: 1 nM
[2]
  IC50: 2 nM

## COc1ncc(-c2ccc3nc(NC(C)=O)cn3n2)cc1C(=O)NCc1ccc(F)c(F)c1OC(C)C1CC1 (stereo not shown) [Example 132, N-{[2-(1-cyclopropylethoxy)-3,4-difluorophenyl]methyl}-5-{2-acetamidoimidazo[1,2-b]pyridazin-6-yl}-2-methoxypyridine-3-carboxamide]
[1]
  IC50: 10 nM
[2]
  IC50: 64 nM

## 5-{2- acetamidoimidazo[1,2-b]pyridazin- 6-yl}-N-{[2-fluoro-5- (trifluoromethyl)phenyl]methyl}-2- methoxypyridine-3-carboxamide [Example 146]
[1]
  IC50: 17 nM
[2]
  IC50: 48 nM

## COc1nc(C)c(-c2ccc3nc(NC(C)=O)cn3n2)cc1C(=O)NCc1cc(F)cc(F)c1OCC1CC1 [Example 287, N-{[2-(cyclopropylmethoxy)-3,5-difluorophenyl](deutero)methyl}-5-{2-acetamidoimidazo[1,2-b]pyridazin-6-yl}-2-methoxy-6-methylpyridine-3-carboxamide]
[1]
  IC50: 4 nM
[2]
  IC50: 2 nM

## O=C(CN1CCC(C(F)(F)F)CC1)Nc1cn2nc(-c3cccc(C(=O)NCC[C@@H](O)c4ccc(Cl)cc4)c3F)ccc2n1 [Example 428, N-[(3R)-3-(4-chlorophenyl)-3-hydroxypropyl]-2-fluoro-3-(2-{2-[4-(trifluoromethyl)piperidin-1-yl]acetamido}imidazo[1,2-b]pyridazin-6-yl)benzamide]
[1]
  IC50: 12 nM
[2]; Homo sapiens
  IC50: 9 nM

## CC(=O)Nc1cn2nc(-c3cc(C(=O)N[C@H](C)c4cc(OC(F)(F)F)ccc4F)c(C)nc3C)ccc2n1 [Example 71, 5-{2-acetamidoimidazo[1,2-b]pyridazin-6-yl}-N-[(1R)-1-[2-fluoro-5-(trifluoromethoxy)phenyl]ethyl]-2,6-dimethylpyridine-3-carboxamide]
[1]
  IC50: 5 nM
[2]; Homo sapiens
  IC50: 13 nM

## CC(=O)Nc1cn2nc(-c3cc(C(=O)NCc4cc(F)cc(F)c4OC4CCOC(C)C4)c(C)nc3C)ccc2n1 (stereo not shown) [Example 62, N-({3,5-difluoro-2-[(2-methyloxan-4-yl)oxy]phenyl}methyl)-5-{2-acetamidoimidazo[1,2-b]pyridazin-6-yl}-2,6-dimethylpyridine-3-carboxamide]
[1]
  IC50: 11 nM
[2]; Homo sapiens
  IC50: 29 nM

## COc1nc(C)c(-c2ccc3nc(NC(C)=O)cn3n2)cc1C(=O)NCc1cccnc1OCC1CCC1 [Example 314, N-{[2-(cyclobutylmethoxy)pyridin-3-yl]methyl}-5-{2-acetamidoimidazo[1,2-b]pyridazin-6-yl}-2-methoxy-6-methylpyridine-3-carboxamide]
[1]
  IC50: 5 nM
[2]; Homo sapiens
  IC50: 3 nM

## COc1ncc(-c2ccc3nc(NC(=O)CC#N)cn3n2)cc1C(=O)NCc1cc(F)cc(F)c1OCC1CC1 [Example 7, 5-[2-(2-cyanoacetamido)imidazo[1,2-b]pyridazin-6-yl]-N-{[2-(cyclopropylmethoxy)-3,5-difluorophenyl]methyl}-2-methoxypyridine-3-carboxamide]
[1]
  IC50: 14 nM
[2]; Homo sapiens
  IC50: 38 nM

## COc1nc(C)c(-c2ccc3nc(NC(C)=O)cn3n2)cc1C(=O)NCc1cc(F)c(F)cc1OCC1CC1 [Example 284, N-{[2-(cyclopropylmethoxy)-4,5-difluorophenyl]methyl}-5-{2-acetamidoimidazo[1,2-b]pyridazin-6-yl}-2-methoxy-6-methylpyridine-3-carboxamide]
[1]
  IC50: 5 nM
[2]; Homo sapiens
  IC50: 5 nM

## CC(=O)Nc1cn2nc(-c3ccc(C)c(C(=O)NC[C@H]4C[C@@H]4c4ccc(F)cc4)c3)ccc2n1 [Example 401, 5-{2-acetamidoimidazo [1,2-b]pyridazin-6-yl}-N-{[(1S, 2S)-2-(4-fluorophenyl)cyclopropyl]methyl}-2-methylbenzamide]
[1]
  IC50: 105 nM
[2]; Homo sapiens
  IC50: 77 nM

## COc1ncc(-c2ccc3nc(NC(C)=O)cn3n2)cc1C(=O)NCc1ccccc1CN1CCOCC1 [Example 113, 5-{2-acetamidoimidazo[1,2-b]pyridazin-6-yl}-2-methoxy-N-({2-[(morpholin-4-yl)methyl]phenyl}methyl)pyridine-3-carboxamide, 2 TFA]
[1]
  IC50: 38 nM
[2]
  IC50: 298 nM

## COc1ncc(-c2ccc3nc(NC(C)=O)cn3n2)cc1C(=O)N[C@H](C)c1ccccc1C(F)(F)F [Example 104, 5-{2-acetamidoimidazo[1,2-b]pyridazin-6-yl}-2-methoxy-N-[(1R)-1-[2-(trifluoromethyl)phenyl]ethyl]pyridine-3-carboxamide]
[1]
  IC50: 36 nM
[2]; Homo sapiens
  IC50: 73 nM

## CC(=O)Nc1cn2nc(-c3cc(C(=O)NCc4cccc(F)c4OC4C[C@@H](C)O[C@@H](C)C4)c(C)nc3C)ccc2n1 (stereo partly drawn) [Example 63, N-[(2-{[(2R,6S)-2,6-dimethyloxan-4-yl]oxy}-3-fluorophenyl)methyl]-5-{2-acetamidoimidazo[1,2-b]pyridazin-6-yl}-2,6-dimethylpyridine-3-carboxamide]
[1]
  IC50: 149 nM
[2]; Homo sapiens
  IC50: 340 nM
